SMILES strings stand for the structures.

The assay has as its target T1, AtGDH (Aspergillus terreus NADP+-specific glutamate dehydrogenase) (Aspergillus terreus, UniProt T2D1F5).
T1 sequence (T2D1F5 1-460): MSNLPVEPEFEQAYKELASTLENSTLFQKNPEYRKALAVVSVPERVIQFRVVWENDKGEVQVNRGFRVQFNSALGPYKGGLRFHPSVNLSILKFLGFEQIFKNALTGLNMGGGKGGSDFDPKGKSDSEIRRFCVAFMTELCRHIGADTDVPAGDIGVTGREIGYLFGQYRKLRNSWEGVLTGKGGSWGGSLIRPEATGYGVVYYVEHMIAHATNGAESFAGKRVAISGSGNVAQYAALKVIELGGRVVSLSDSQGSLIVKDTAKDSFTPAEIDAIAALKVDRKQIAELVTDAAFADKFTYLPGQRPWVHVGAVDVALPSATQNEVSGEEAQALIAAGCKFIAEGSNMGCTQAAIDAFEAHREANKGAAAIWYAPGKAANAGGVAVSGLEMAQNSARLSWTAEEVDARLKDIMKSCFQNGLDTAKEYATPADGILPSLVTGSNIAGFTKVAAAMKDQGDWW
As to the kind of experiment: NADPH oxidation at […] nm, reductive amination. The class given is biochemical.
For `O=C(O)CCC(=O)O` [succinate], the Ki came out at 39.1 mM. As for `O=C(O)CC(=O)O` [malonate], affinity was put at a Ki of 19.5 mM.

In turn, `O=C(O)/C=C/C(=O)O` [fumarate] displayed a Ki of 23.2 mM. In the case of `O=C(O)/C=C\C(=O)O` [maleate], the affinity corresponds to a Ki of 36.2 mM. Regarding `O=C(O)C(O)C(O)C(=O)O` (centres unmarked) [tartrate], the Ki came out at 50.8 mM.

For the origin of these results see doi:10.1101/2021.09.28.462122v1 (biorxiv, 2021).
